According to paper PMC11530122, “Mutant induced neurons and humanized mice enable identification of Niemann-Pick type C1 proteostatic therapies” (JCI Insight, 2024):

Target: T1, NPC1 (Homo sapiens, UniProt O15118)
T1 construct: full-length WT human NPC1, C-terminal Strep tag, in peptidiscs
T1 sequence (O15118 23-1278): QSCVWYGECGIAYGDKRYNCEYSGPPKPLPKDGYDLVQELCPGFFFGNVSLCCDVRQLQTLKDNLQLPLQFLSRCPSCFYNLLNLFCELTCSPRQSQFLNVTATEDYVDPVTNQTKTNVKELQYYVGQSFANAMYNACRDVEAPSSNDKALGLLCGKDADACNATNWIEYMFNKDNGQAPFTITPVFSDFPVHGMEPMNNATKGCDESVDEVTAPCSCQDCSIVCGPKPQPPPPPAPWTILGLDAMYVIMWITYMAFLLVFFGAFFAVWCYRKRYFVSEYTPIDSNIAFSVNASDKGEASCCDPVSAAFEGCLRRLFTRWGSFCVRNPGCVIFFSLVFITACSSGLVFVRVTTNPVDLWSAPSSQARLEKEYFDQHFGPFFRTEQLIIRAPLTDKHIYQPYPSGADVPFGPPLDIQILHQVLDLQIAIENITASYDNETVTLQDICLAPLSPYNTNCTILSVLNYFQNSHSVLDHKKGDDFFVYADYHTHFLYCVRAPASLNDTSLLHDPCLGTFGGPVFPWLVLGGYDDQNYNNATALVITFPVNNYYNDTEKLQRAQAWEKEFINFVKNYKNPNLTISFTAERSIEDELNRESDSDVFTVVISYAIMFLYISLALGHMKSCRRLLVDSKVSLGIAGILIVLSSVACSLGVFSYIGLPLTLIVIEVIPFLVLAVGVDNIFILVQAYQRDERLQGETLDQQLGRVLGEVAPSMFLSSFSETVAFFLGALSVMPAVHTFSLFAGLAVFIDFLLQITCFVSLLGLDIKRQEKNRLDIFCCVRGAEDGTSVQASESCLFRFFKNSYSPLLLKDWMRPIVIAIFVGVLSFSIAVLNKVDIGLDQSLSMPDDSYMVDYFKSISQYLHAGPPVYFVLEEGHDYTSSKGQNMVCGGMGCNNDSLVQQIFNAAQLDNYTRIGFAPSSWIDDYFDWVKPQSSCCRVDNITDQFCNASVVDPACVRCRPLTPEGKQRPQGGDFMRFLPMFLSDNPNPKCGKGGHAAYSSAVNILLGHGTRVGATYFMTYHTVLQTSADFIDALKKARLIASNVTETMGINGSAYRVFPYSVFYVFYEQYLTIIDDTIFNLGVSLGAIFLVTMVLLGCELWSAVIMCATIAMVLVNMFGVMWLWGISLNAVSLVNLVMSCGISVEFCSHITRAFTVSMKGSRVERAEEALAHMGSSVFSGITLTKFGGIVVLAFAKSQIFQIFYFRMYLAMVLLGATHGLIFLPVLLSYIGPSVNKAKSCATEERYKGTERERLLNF
Assay: microscale thermophoresis; nanoDSF thermal stability with purified NPC1 (EC50 approximately […])
Type: binding

EC50: 177 nM
Substance: mo56-hydroxycholesterol [mo56Hc]
